In patent publication US12391799B2, “Peptoid polymers and methods of use” (X-Therma, Inc., priority 2017, dated 2025):
Numbered stars: 1 amine (or outer) side, 2 acyl side, 3 side chain; on linkers, the order of the positions; unused ones are H or OH. Square brackets hold non-standard residues; d marks the D form. Peptide text beside a SMILES is read from it. X1 = CC(O)CN(CC(=O)[*:2])[*:1]; NPrGly = CCCNCC(=O)O; Sar = CNCC(=O)O

Tests used:
[1] = system: HEK293 cells; test: HEK293 survival after storage at −80° C. for 3 days (Alamar Blue); assay type: cell-based, human; conditions: 1% peptoid in XT Formula, HEK293 stored at −80° C. for 3 days, vs. XT Formula alone
Description: Several compounds were examined in XT Formula at 1% concentration (i.e., 1% peptoid polymer concentration) for their effects on the cryopreservation of HEK293 cells, an adherent cell line derived from human embryonic kidney cells. In particular, the effects of these compounds on the survival of HEK293 cells stored at −80° C. for 3 days were evaluated. An Alamar Blue assay was used to assess cell survival 1 day after stored cells were thawed. A 10% DMSO formula and DMEM cell media only were used as controls.

[2] = Vitrification screening assay (critical EG concentration); assay type: physicochemical; conditions: for Critical Ethylene Glycol Concentration: lowest EG for complete vitrification of 20 μL sample, 5 mg/mL peptoid in formulation, liquid nitrogen immersion
Description: As another means of increasing the throughput of library analysis, a vitrification screening assay was performed to evaluate anti-icing efficacy. For these experiments the compounds named “Compound 11,” “Compound 12,” “Compound 25,” Compound 26,” “Compound 27,” “Compound 28,” “Compound 60,” “Compound 62,” “Compound 63,” “Compound 64,” “Compound 69,” “Compound 70,” “Compound 71,” “Compound 72,” “Compound 73,” “Compound 74,” “Compound 75,” “Compound 76,” “Compound 77,” “Compound 78,” “Compound 81,” “Compound 82,” “Compound 83,” “Compound 84,” and “Compound 85” were tested.
For these experiments, 20 μL samples were flash frozen by liquid immersion in liquid nitrogen. Ethylene glycol (EG) concentrations between 5% and 25% (v/v) were used. A concentration of 5 mg/mL of peptoid polymer compounds were used in formulation. Table 12 lists the lowest concentration of EG necessary to bring about complete vitrification of a 20 μL sample with peptoid polymer in formulation, referred to as the “critical EG concentration.” A sample of formulation without the presence of a peptoid polymer was only able to bring about vitrification at 20% or more EG. Peptoid polymers of interest were able to bring about vitrification within formulas containing EG when the concentration of EG was lower than 20%.

[3] = system: K562 cells; test: Cell toxicity assay in K562 cell culture; assay type: cell-based; conditions: 24 hours at 37° C. and 5% CO2
Description: The cytotoxicity of several compounds were evaluated using a typical cell toxicity assay in K562 cell culture. […] As a positive control, some cells were incubated without any peptoid polymer (DMEM). For a negative control, cells were incubated with DMSO (DMEM+10% DMSO).

[4] = system: K562 cells; test: K562 viability after storage at −20° C. for 3 days (Alamar Blue); assay type: cell-based; conditions: 1% peptoid in XT Formula, K562 stored at −20° C. for 3 days, vs. XT Formula alone
Description: Several compounds were examined in XT Formula at 1% concentration (i.e., 1% peptoid polymer concentration) for their ability to increase the viability of cells subjected to super-cooled storage. XT Formula contains HTK buffer, among other components. In particular, the effects of these compounds on the viability of K562 cells stored at −20° C. for 3 days were evaluated. An Alamar Blue assay was used to assess cell viability 7 days after stored cells were thawed.

[5] = Crystallographic x-ray diffraction (XRD) ice crystal formation assay; assay type: physicochemical; conditions: 1 and 5 mg/mL peptoid, EG 15-30% (v/v)
Description: In order to increase the throughput of library analysis, a crystallographic x-ray diffraction (XRD) technique was used to evaluate ice crystal formation. For these experiments, the compounds named “Compound 2,” “Compound 8,” “Compound 10,” “Compound 11,” “Compound 12,” “Compound 13,” and “Compound 58” were tested. Compound 58 is similar to Compound 12, except that an arginine amino acid has been appended to the N-terminal end.
For these experiments, EG concentrations between 15% and 30% (v/v) were used. Typically, EG, DMSO, and other cryoprotectants are used during XRD sample analysis at concentrations of 35-40% (v/v) to vitrify solutions and avoid diffraction interference from ice crystals. Concentrations of 1 and 5 mg/mL of the peptoid and peptoid-peptide compounds were used. FIGS. 3A, 3B, and 3C illustrate exemplary XRD data under conditions of complete vitrification, partial vitrification with the presence of cubic ice, and freezing ([…]), respectively. FIG. 3D provides ice rings scores for a variety of EG concentrations and two concentrations of Compounds 2, 8, and 12.
“IceRing1” and “IceRing2” refer to ice formation scores, which range between 0 (no ice formation) and 15 (large ice formation).

[6] = system: HEK 293 cell line; test: Cell-based cytotoxicity assay (MTT); parameters: species or system human; conditions: serial dilutions in culture media, 37° C., about 3 to 5 days
Description: A Tecan Genesis Robotic Workstation was used to prepare solutions in 96- and 384-well plates. Solutions contained culture media, buffers, a cryoprotectant composition (Compound 12) or DMSO. Solutions were adjusted to the desired pH. Serial dilutions were performed to obtain solutions containing various concentrations of Compound 12 and DMSO. Control experiments were performed using only culture media.
For these experiments, cells were seeded at low density (i.e., 10% confluence), exposed to solutions containing Compound 12 or DMSO, and placed in a 37° C. incubator. The cells were allowed to grow until control cells that were treated only with empty vehicle approached 70% confluence (typically about 3 to 5 days). Assessment for compound cytotoxicity was via MTT assay.

Structure (SMILES)	cell survival 1 day after thaw [1]	Critical Ethylene Glycol Concentration [2]	other results
CCC(C)N(CC(=O)N(CC(=O)N(CC(=O)N(CC(=O)N(CC(=O)N(CC(=O)N(CC(N)=O)CC(C)O)CC(C)O)C(C)CC)C(C)CC)CC(C)O)CC(C)O)C(=O)CN(C(=O)CN(CC(C)O)C(=O)CNCC(C)O)C(C)CC (stereo not shown) [Compound 11]	improved cell survival compared to XT Formula alone	15.0% (ν/ν)	
CNCC(=O)N(C)CC(=O)N(C)CC(=O)N(CC(=O)N(CC(=O)N(CC(=O)N(C)CC(=O)N(C)CC(=O)N(C)CC(=O)N(CC(N)=O)CC(C)O)CC(C)O)CC(C)O)CC(C)O (stereo not shown) [Compound 15] (H-[Sar][Sar][Sar][X1][X1][X1][Sar][Sar][Sar][X1]-NH2)			cytotoxicity (cell persistence) ([3]; 1% concentration): persisted about as well as cell incubated in cell culture media alone (DMEM)
CCC(C)NCC(=O)N(CC(=O)N(CCO)CC(=O)N(CCO)CC(=O)N(CC(=O)N(CC(=O)N(CCO)CC(=O)N(CCO)CC(=O)N(CC(=O)N(CC(N)=O)C(C)CC)C(C)CC)C(C)CC)C(C)CC)C(C)CC (stereo not drawn) [Compound 74, Nsb-Nsb-Nhe-Nhe-Nsb-Nsb-Nhe-Nhe-Nsb-Nsb]		15.0% (ν/ν)	cell viability 7 days after thaw [4]: improved cell viability compared to XT Formula alone
CCC(C)NCC(=O)N(CC(=O)N(CC(=O)N(CC(=O)N(CC(=O)N(CC(=O)N(CC(=O)N(CC(=O)N(CC(=O)N(CC(N)=O)CC(C)O)CC(C)O)CC(C)O)C(C)CC)CC(C)O)CC(C)O)CC(C)O)CC(C)O)CC(C)O (stereo not drawn) [Compound 8, Nsb-Nhp-Nhp-Nhp-Nhp-Nhp-Nsb-Nhp-Nhp-Nhp]			reduction of necessary EG concentration while preventing ice formation (XRD ice ring scores) [5]: significantly reduced necessary EG concentrations while preventing ice formation
CCC(C)NCC(=O)N(CC(=O)N(CCOC)CC(=O)N(CCOC)CC(=O)N(CC(=O)N(CC(=O)N(CCOC)CC(=O)N(CCOC)CC(=O)N(CC(=O)N(CC(N)=O)C(C)CC)C(C)CC)C(C)CC)C(C)CC)C(C)CC (stereo not drawn) [Compound 62, Nsb-Nsb-Nmo-Nmo-Nsb-Nsb-Nmo-Nmo-Nsb-Nsb]	improved cell survival compared to XT Formula alone	12.5% (ν/ν)	cytotoxicity (cell persistence) ([3]; 1% concentration): persisted about as well as cell incubated in cell culture media alone (DMEM); cell viability 7 days after thaw [4]: improved cell viability compared to XT Formula alone; EG required to permit vitrification ([2]; 20 μL sample, 5 mg/mL peptoid, formulation without peptoid needs 20% or more EG): required significantly less EG in order to permit vitrification
CCC(C)NCC(=O)N(CC(=O)N(CC(=O)N(CC(=O)N(CC(=O)N(CC(=O)N(CC(=O)N(CC(=O)N(CC(=O)N(CC(N)=O)C(C)CC)C(C)CC)C(C)CO)C(C)CO)C(C)CC)C(C)CC)C(C)CO)C(C)CO)C(C)CC (stereo not drawn) [Compound 75, Nsb-Nsb-Nyp-Nyp-Nsb-Nsb-Nyp-Nyp-Nsb-Nsb]	improved cell survival compared to XT Formula alone	15.0% (ν/ν)	
CCCNCC(=O)N(CCC)CC(=O)N(CC(=O)N(CC(=O)N(CCC)CC(=O)N(CCC)CC(=O)N(CC(=O)N(CC(=O)N(CCC)CC(=O)N(CCC)CC(N)=O)CC(C)O)CC(C)O)CC(C)O)CC(C)O (stereo not drawn) [Compound 27, Npr-Npr-Nhp-Nhp-Npr-Npr-Nhp-Nhp-Npr-Npr] (H-[NPrGly][NPrGly][X1][X1][NPrGly][NPrGly][X1][X1][NPrGly][NPrGly]-NH2)	improved cell survival compared to XT Formula alone	12.5% (ν/ν)	cell viability 7 days after thaw [4]: improved cell viability compared to XT Formula alone
C[S+](C)[O-] [DMSO, dimethyl sulfoxide, reference compound]			toxicity by MTT assay [6]: did not allow for warm survival for an extended period of time at any concentration above 0.5% (v/v); cytotoxicity (cell persistence) ([3]; DMEM+10% DMSO): suffered significant toxicity
CNCC(=O)N(C)CC(=O)N(CC(=O)N(CC(=O)N(C)CC(=O)N(C)CC(=O)N(CC(=O)N(CC(=O)N(C)CC(=O)N(C)CC(N)=O)CC(C)O)CC(C)O)CC(C)O)CC(C)O (stereo not drawn) [Compound 64, Nme-Nme-Nhp-Nhp-Nme-Nme-Nhp-Nhp-Nme-Nme] (H-[Sar][Sar][X1][X1][Sar][Sar][X1][X1][Sar][Sar]-NH2)	improved cell survival compared to XT Formula alone	17.5% (ν/ν)	
CCC(C)NCC(=O)N(CC(=O)N(CC(=O)N(CC(=O)N(CC(=O)N(CC(=O)N(CC(=O)N(CC(=O)N(CC(=O)N(CC(N)=O)CC(C)O)C(C)CC)C(C)CC)C(C)CC)CC(C)O)CC(C)O)CC(C)O)C(C)CC)C(C)CC (stereo not drawn) [Compound 2, Nsb-Nsb-Nsb-Nhp-Nhp-Nhp-Nsb-Nsb-Nsb-Nhp]			reduction of necessary EG concentration while preventing ice formation (XRD ice ring scores) [5]: significantly reduced necessary EG concentrations while preventing ice formation
CCC(C)NCC(=O)N(CC(=O)N(CC(=O)N(CC(=O)N(CC(=O)N(CC(=O)N(CC(=O)N(CC(=O)N(CC(=O)N(CC(N)=O)C(C)CC)C(C)CC)CC1CCCO1)CC1CCCO1)C(C)CC)C(C)CC)CC1CCCO1)CC1CCCO1)C(C)CC (stereo not drawn) [Compound 63, Nsb-Nsb-Ntf-Ntf-Nsb-Nsb-Ntf-Ntf-Nsb-Nsb]		15.0% (ν/ν)	
